Columns and labels:
[1] = tested on: SKOV3 cells; assay: Serum starved proliferation assay on the ovarian carcinoma SKOV3 cells (C3); assay type: cell-based; conditions: EGF stimulated (100 ng/ml, 72 hours, serum free) or 72 hours with compounds, MTT cell viability assay; for IC50: Homo sapiens, SK-OV-3, 72 h, read-out: SKOV3 cell (C3): pIC50 (converted)
In short: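 SKOV3 cells grown 24 h in 10% FCS, then treated with compound under serum-free conditions (37 °C, 5% CO2) and stimulated 72 h with EGF at 100 ng/ml final; read-out by MTT viability. Alternative format: compound for 72 h after the same 24 h FCS step, also by MTT.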

[2] = biological target: EGFR (Homo sapiens, UniProt P00533); assay: In vitro inhibition of EGFR, Flash Plate or glass-fiber filter technology (C2); assay type: biochemical; design: 0.5 μg EGFR-kinase domain/well; conditions: EGFR-kinase domain, 5.0 μM unlabeled ATP, read-out: Kinase activity.(C2): pIC50 (converted)
In short: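 EGFR kinase domain (0.5 μg/well) phosphorylated poly(GT) with 5.0 μM ATP plus AT^33P, dose response 1·10^−6 to 1·10^−10 M. Flash Plate: biotin-poly(GT), Tris pH 8.0, 30° C, 60 min, scintillation counting. Filter: Tris pH 7.5 with MnCl2, 25° C, 10 min, 33P counted on glass-fiber filter by phosphorimaging.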

EGFR, sequence (P00533 712-979 limits assumed): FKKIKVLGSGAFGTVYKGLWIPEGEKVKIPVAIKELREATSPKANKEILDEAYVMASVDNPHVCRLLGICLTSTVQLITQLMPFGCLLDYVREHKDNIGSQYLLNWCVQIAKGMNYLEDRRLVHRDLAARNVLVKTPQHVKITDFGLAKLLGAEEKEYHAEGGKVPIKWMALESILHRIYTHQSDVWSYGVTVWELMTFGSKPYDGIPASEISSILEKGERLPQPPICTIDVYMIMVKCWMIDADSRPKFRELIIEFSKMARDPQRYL

Row | IC50 [1] [µM] | melting point [°C] | IC50 [2] [µM] | SKOV3 cell (C3): pIC50 [1] | Structure (SMILES)
1 | 3.16 | 236.4 to 237.3 | 0.01 |  | COc1cc2ncnc3c2cc1OCCCNC(=O)CCNCc1ccc(Cl)cc1N3 [Compound 70, 4,6-ethanediylidenepyrimido[4,5-b][6,1,10,14]benzoxatriazacycloheptadecin-12(13H)-one, 19-chloro-8,9,10,11,14,15,16,21-octahydro-22-methoxy-]
2 |  | 286.8 to 287.6 |  |  | COc1cc2ncnc3c2cc1OCCCNC(=O)CN1CCN(CC1)Cc1ccc(Cl)cc1N3 [Compound 93, 4,6-ethanediylidene-14,17-ethanopyrimido[4,5-b][6,1,10,13,16]benzoxatetraazacyclononadecin-12(13H)-one, 21-chloro-8,9,10,11,15,16,18,23-octahydro-26-methoxy-]
3 | 0.0631 | 260.4 to 261.1 | 0.02 |  | COc1cc2ncnc3c2cc1OCCCNC(=O)CN(C)Cc1cc(F)c(Cl)cc1N3 [Compound 80, 4,6-ethanediylidene-12H-pyrimido[4,5-b][6,1,10,13]benzoxatriazacyclohexadecin-12-one, 18-chloro-17-fluoro-8,9,10,11,13,14,15,20-octahydro-21-methoxy-14-methyl-]
4 | 0.2 | 304.6 to 304.8 | 0.0251 |  | COc1cc2ncnc3c2cc1OCCCNC(=O)CNCc1ccc(Cl)cc1N3 [Compound 99, 4,6-ethanediylidene-12H-pyrimido[4,5-b][6,1,10,13]benzoxatriazacyclohexadecin-12-one, 18-chloro-8,9,10,11,13,14,15,20-octahydro-21-methoxy-]
5 |  | 265 |  |  | COc1cc2ncnc3c2cc1OCCNC(=O)C(C)N(C)Cc1ccc(Cl)cc1N3 (stereo not shown) [Compound 89, 4,6-ethanediylidenepyrimido[4,5-b][6,1,9,12]benzoxatriazacyclopentadecin-11(8H)-one, 17-chloro-9,10,12,13,14,19-hexahydro-20-methoxy-12,13-dimethyl-]
6 |  | 231.9 to 232.8 |  |  | COc1cc2ncnc3c2cc1OCCCNC(=O)C1CCCN1Cc1ccc(Cl)cc1N3 (stereo not shown) [Compound 84, 4,6-ethanediylidene-12H-pyrimido[4,5-b]pyrrolo[2,1-l][6,1,10,13]benzoxatriazacyclohexadecin-12-one, 20-chloro-8,9,10,11,12a,13,14,15,17,22-decahydro-23-methoxy-]

Further lines, the compound ahead of its results:

Row | Structure (SMILES) | IC50 [1] [µM] | melting point [°C] | IC50 [2] [µM] | SKOV3 cell (C3): pIC50 [1]
7 | COc1cc2ncnc3c2cc1OCCNC(=O)C1CCCN1Cc1cc(F)c(Cl)cc1N3 (stereo not shown) [Compound 78, 4,6-ethanediylidenepyrimido[4,5-b]pyrrolo[2,1-k][6,1,9,12]benzoxatriazacyclopentadecin-11(8H)-one, 19-chloro-18-fluoro-9,10,11a,12,13,14,16,21-octahydro-22-methoxy-] | 0.316 | 261.4 to 264 | 0.0316 | 
8 | COc1cc2ncnc3c2cc1OCCCNC(=O)C1CCCN1Cc1ccc(Cl)cc1N3 (stereo not shown) [Compound 77, 4,6-ethanediylidene-12H-pyrimido[4,5-b]pyrrolo[2,1-l][6,1,10,13]benzoxatriazacyclohexadecin-12-one, 20-chloro-8,9,10,11,12a,13,14,15,17,22-decahydro-23-methoxy-] |  | 129.8 to 132.8 |  | 
9 | COc1cc2ncnc3c2cc1OCCNC(=O)C(CO)NCc1ccc(Cl)cc1N3 (stereo not shown) [Compound 91, 4,6-ethanediylidenepyrimido[4,5-b][6,1,9,12]benzoxatriazacyclopentadecin-11(8H)-one, 17-chloro-9,10,12,13,14,19-hexahydro-12-(hydroxymethyl)-20-methoxy-] |  | 276.3 to 277.4 |  | 
10 | COc1cc2ncnc3c2cc1OCCNC(=O)C1CCCN1Cc1ccc(Cl)cc1N3 (stereo not shown) [Compound 83, 4,6-ethanediylidenepyrimido[4,5-b]pyrrolo[2,1-k][6,1,9,12]benzoxatriazacyclopentadecin-11(8H)-one, 19-chloro-9,10,11a,12,13,14,16,21-octahydro-22-methoxy-] |  | 262 to 262.8 | 0.501 | 6.1
11 | COc1cc2ncnc3c2cc1OCCCNC(=O)CN(C)Cc1ccc(Cl)cc1N3 [Compound 74, 4,6-ethanediylidene-12H-pyrimido[4,5-b][6,1,10,13]benzoxatriazacyclohexadecin-12-one, 18-chloro-8,9,10,11,13,14,15,20-octahydro-21-methoxy-14-methyl-] | 1 | 240 to 240.3 | 0.0251 | 
12 | COc1cc2ncnc3c2cc1OCCNC(=O)C1CCCN1Cc1ccc(Cl)cc1N3 (stereo not shown) [Compound 71, 4,6-ethanediylidenepyrimido[4,5-b]pyrrolo[2,1-k][6,1,9,12]benzoxatriazacyclopentadecin-11(8H)-one, 19-chloro-9,10,11a,12,13,14,16,21-octahydro-22-methoxy-] |  | 261.2 to 265 | 0.0316 | 5.5
13 | COc1cc2ncnc3c2cc1OCCCNC(=O)C1CCCN(Cc2ccc(Cl)cc2N3)C1 (stereo not shown) [Compound 95, 12H-4,6-ethanediylidene-13,17-methanopyrimido[4,5-b][6,1,10,16]benzoxatriazacyclononadecin-12-one, 21-chloro-8,9,10,11,13,14,15,16,18,23-decahydro-25-methoxy-] |  | 240.1 to 242.8 |  | 
14 | COc1cc2ncnc3c2cc1OCCNC(=O)C1CCN(CC1)Cc1ccc(Cl)cc1N3 [Compound 87, 8H-4,6-ethanediylidene-12,15-ethanopyrimido[4,5-b][6,1,9,14]benzoxatriazacycloheptadecin-11(12H)-one, 19-chloro-9,10,13,14,16,21-hexahydro-24-methoxy-] |  | 246.6 to 248.2 |  | 
15 | CCN1CC(=O)NCCOc2cc3c(ncnc3cc2OC)Nc2cc(Cl)ccc2C1 [Compound 90, 4,6-ethanediylidenepyrimido[4,5-b][6,1,9,12]benzoxatriazacyclopentadecin-11(8H)-one, 17-chloro-13-ethyl-9,10,12,13,14,19-hexahydro-20-methoxy-] |  | 261.1 to 262 |  | 
16 | COc1cc2ncnc3c2cc1OCCCC=CCCCC(=O)NCc1ccc(Cl)cc1N3 [Compound 106, 4,6-ethanediylidenepyrimido[4,5-b][6,1,16]benzoxadiazacyclononadecin-16(17H)-one, 21-chloro-8,9,10,13,14,15,18,23-octahydro-24-methoxy-] |  |  | 0.1 | 7.2
17 | COc1cc2ncnc3c2cc1OCCCC(=O)NC(Cc1ccccc1)C(=O)NCc1ccc(Cl)cc1N3 (stereo not shown) [Compound 145, 4,6-ethanediylidenepyrimido[4,5-b][6,1,11,14]benzoxatriazacycloheptadecine-11,14(8H,15H)-dione, 19-chloro-9,10,12,13,16,21-hexahydro-22-methoxy-13-(phenylmethyl)-] | 0.251 |  | 0.2 | 
18 | COc1cc2ncnc3c2cc1OCCCCC(=O)NC(CC(C)C)C(=O)NCc1ccc(Cl)cc1N3 (stereo not shown) [Compound 136, 4,6-ethanediylidene-8H-pyrimido[4,5-b][6,1,12,15]benzoxatriazacyclooctadecine-12,15(16H)-dione, 20-chloro-9,10,11,13,14,17,22-heptahydro-23-methoxy-14-(2-methylpropyl)-] | 0.251 |  | 0.631 | 
19 | COc1cc2ncnc3c2cc1OCC(=O)N1CCCC1C(=O)NCc1ccccc1N3 (stereo not shown) [Compound 125, 9,11-ethanediylidenepyrimido[4,5-b]pyrrolo[1,2-i][6,1,9,12]benzoxatriazacyclopentadecine-14,19(5H,13H)-dione, 16,17,18,18a,20,21-hexahydro-22-methoxy-] | 10 |  | 7.94 | 

Reference: US8394786B2, “Quinazoline derivatives” (Janssen Pharmaceutica N.V., priority 2003, dated 2013)
